Article PMC7697191, “Identification of Novel Influenza Polymerase PB2 Inhibitors Using a Cascade Docking Virtual Screening Approach” (Molecules, 2020)

Key:
[1] = in vitro; settings: dog
[2] = biological target: H1N1 PB2 CBD (Influenza A virus, UniProt P03427); test: SPR binding assay on immobilized H1N1 PB2 CBD; set-up: species or system influenza A/WSN/1933 (H1N1); settings: Biacore T200, CM5 chip, affinity binding model
[3] = test system: A/Hong Kong/8/68 (HK/68, H3N2); type: cell-based; settings: MDCK cells, CPE inhibition

H1N1 PB2 CBD, sequence (P03427 318-486 limits assumed): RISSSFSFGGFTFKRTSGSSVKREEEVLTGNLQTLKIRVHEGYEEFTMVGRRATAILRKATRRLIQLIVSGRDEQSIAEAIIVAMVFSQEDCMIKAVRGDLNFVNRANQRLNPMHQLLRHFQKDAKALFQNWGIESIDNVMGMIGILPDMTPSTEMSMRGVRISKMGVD

Row | SMILES | CC50 at 72 h [1] [µM] | Kd [2] [nM] | activity against the A/Hong Kong/8/68 (HK/68, H3N2) strain, in words [3]
1 | NS(=O)(=O)CCCC(=O)NCc1ccc2[nH]c3c(c2c1)CCCCCC3 [13D7] | > 100 | 1130 | –
2 | Cc1cccnc1CCNc1nc2nonc2nc1NCc1cccs1 [21B1] | > 100 | 1950 | no activity
3 | O=C(O)[C@H]1C2CCC(CC2)[C@@H]1Nc1nc(-c2c[nH]c3ncc(F)cc23)ncc1F [VX-787, reference compound] | > 100 | 54 | –
4 | Cc1cc(CN2CCOc3c(O)cc(-c4ccccc4Cl)cc3C2)on1 [11C6] | > 100 | 1700 | –
5 | C=CCn1cc(-c2cc(-c3ccc(C(=O)O)cc3)[nH]c(=N)c2C#N)cn1 [12C5] | > 100 | 2440 | –
6 | O=C(NCc1nc(C2CCCCC2)no1)c1cc(-c2ccccc2F)n[nH]1 [11C8] | > 100 | 6160 | –
7 | c1cc(Cn2ccnc2-c2nc3c(s2)CCCC3)cc(-c2nnn[nH]2)c1 [12B1] | > 100 | 6770 | –
8 | Cc1c(-c2ccccc2F)[nH]c2ccc(CNC(=O)CCc3cc(O)no3)cc12 [11C5] | > 100 | 2260 | –
9 | c1csc(CNc2nc3nonc3nc2NCCCN2CCOCC2)c1 [11D2] | > 100 | 210 | –
10 | CCSc1ncc(-c2cc(-c3c(C)nn(C)c3C)nc(N)c2C#N)cn1 [21A5] | > 100 | 540 | –
11 | CCC(CC)O[C@@H]1C=C(C(=O)O)C[C@H](N)[C@H]1NC(C)=O [OC, Oseltamivir carboxylate, reference compound] | > 100 | – | –
12 | C=CCn1cc(CNCc2noc(-c3ccc4c(c3)OCO4)n2)c(C)n1 [11D4] | > 100 | 1870 | –
